Structures can show the parent of a compound that is named as a salt. Where two headings read alike, the source gives them in different places.
Experiments:
EGFR = biological target: T1, EGFR (Homo sapiens, UniProt P00533); test: EGFR in-cell Western (ICW) screening protocol (EGFR inhibition assay); format: cell-based; design: ICW 1 / ICW 2 / ICW Avg: unit not given here; conditions: for ICW Avg / ICW 1 / ICW 2: ICW assay; for ICW Avg: average of runs 1 and 2; for ICW 1: run 1; for ICW 2: run 2; for ICW assay: Table 10
T1 construct: host or cells: A431
T1 sequence (P00533 25-1210): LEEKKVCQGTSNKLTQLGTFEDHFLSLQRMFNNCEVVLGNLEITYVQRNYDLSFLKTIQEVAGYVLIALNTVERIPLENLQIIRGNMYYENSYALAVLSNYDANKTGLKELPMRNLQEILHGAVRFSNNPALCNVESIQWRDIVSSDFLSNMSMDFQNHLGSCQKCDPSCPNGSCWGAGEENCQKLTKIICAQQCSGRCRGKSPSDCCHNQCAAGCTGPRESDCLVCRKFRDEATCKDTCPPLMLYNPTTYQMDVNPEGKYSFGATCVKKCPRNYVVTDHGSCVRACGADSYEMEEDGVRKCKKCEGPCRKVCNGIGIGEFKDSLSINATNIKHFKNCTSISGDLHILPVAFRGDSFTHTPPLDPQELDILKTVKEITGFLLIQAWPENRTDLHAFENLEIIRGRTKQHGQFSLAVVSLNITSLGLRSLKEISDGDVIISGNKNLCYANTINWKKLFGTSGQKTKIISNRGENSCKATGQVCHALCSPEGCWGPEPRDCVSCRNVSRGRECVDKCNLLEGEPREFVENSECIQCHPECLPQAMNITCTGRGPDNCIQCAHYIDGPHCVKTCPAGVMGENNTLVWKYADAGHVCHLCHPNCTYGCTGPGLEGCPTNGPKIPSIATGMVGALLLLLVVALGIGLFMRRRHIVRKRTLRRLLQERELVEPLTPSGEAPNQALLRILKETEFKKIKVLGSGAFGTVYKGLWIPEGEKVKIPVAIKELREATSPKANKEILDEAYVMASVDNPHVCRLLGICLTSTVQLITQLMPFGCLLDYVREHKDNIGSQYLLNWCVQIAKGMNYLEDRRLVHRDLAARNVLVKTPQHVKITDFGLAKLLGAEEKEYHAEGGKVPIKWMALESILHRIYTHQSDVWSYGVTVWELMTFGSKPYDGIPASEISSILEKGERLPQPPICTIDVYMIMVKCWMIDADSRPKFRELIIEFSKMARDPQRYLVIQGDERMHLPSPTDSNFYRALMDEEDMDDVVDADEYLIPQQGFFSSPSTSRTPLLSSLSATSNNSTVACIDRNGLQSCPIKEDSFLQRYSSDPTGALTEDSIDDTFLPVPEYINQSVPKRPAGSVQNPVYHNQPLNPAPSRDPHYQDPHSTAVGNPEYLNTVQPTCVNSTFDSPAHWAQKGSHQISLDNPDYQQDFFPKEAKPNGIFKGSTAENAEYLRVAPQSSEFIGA
Method: The following example describes general EGFR in-cell Western (ICW) screening protocol. Methods are according to Chen et al. (2005) Analytical Biochemistry 338, 136-142 (incorporated herein by reference), except as otherwise noted.
Cell Plates: A431 cells (ATCC # CRL-1555) were grown in Dulbecco's Modified Eagle Medium (DMEM; ATCC #30-2002) supplemented with 10% fetal bovine serum, 105 units/ml pen/strep (Invitrogen #15140155) and 2.1 mM L-glutamine (ATCC #30-2214). Cells were seeded into 96 well tissue culture plates (BD Falcon #353948) at a density of 30,000 cells per well and incubated at 37° C. with 5% CO2 overnight. Two cell plates were prepared for each compound plate.
Serum Starvation: The cells were serum starved prior to compound addition. The media was removed by aspiration and the cells washed with PBS (200 μl/well; Invitrogen #20012-027). The PBS was removed by aspiration and replaced with 200 μl of DMEM (ATCC #30-2002) supplemented with 105 units/ml pen/strep (Invitrogen #15140155) and 2.1 mM 1-glutamine (ATCC #30-2214). The cell plates were incubated at 37° C./5% CO2 for 2 hours.
Compound Plate Preparation: The test compounds were solvated in 100% DMSO (Sigma #472301-2L) at a concentration of 25 mM. Compounds found not to be completely soluble in 100% DMSO at 25 mM were diluted to 10 mM with 100% DMSO and TFA (Fluka #91699) added to a final concentration of 0.2%. 40 μl of test compound was added to the appropriate well of a 96 well plate (Falcon #351190). As controls, 6 μM EGFR kinase inhibitor PD168393 (EMD/Calbiochem #513033) in 100% DMSO and DMSO alone were added to various wells. Prepared compound plates were stored at RT prior to use and at 4° C. long term.
Compound Dilution Plate Preparation: 250 μl of DMEM supplemented with 1 mg/ml BSA (Sigma A3059-10G) was added to the appropriate wells of a 96 well plate to prepare the compound dilution plates. Using a multichannel pipettor, 1.25 μl of compound from the compound plate was transferred into the compound dilution plate.
Compound Addition: The starve media was removed from the cell plates by aspiration. Using a multichannel pipettor, the compound dilution plates were mixed by pipetting up and down three times. 50 μl of mixed, diluted compound was added to each of two rows/columns on each of two cell plates. The cell plates with compound were incubated at 37° C./5% CO2 for 4 hours.
EGF Addition: 20 ng/ml EGF (Upstate #01-107) was prepared in DMEM supplemented with 1 mg/ml BSA. 50 μl of 20 or 0 ng/ml EGF was added to the appropriate wells without the removal of compound. The compound and EGF were mixed by pipetting up and down three times. The plates were incubated at 37° C./5% CO2 for 10 min. In some screening assays the final concentration of EGF used for simulation was 6.6, or 12.5 ng/ml rather than 10 ng/ml.
Fixation and Triton Washing: The EGF+compound was removed by aspiration and 150 μl of freshly prepared Fixation Solution (1×PBS, Sigma P3813-10PK, and 4% Formaldehyde, Pierce #28908) was immediately added. The plates were incubated at RT for 20 min without shaking. The Fixation Solution was removed by aspiration and the plates washed four times with 200 μl each of Triton Wash Solution (1×PBS, Sigma P3813-10PK, and 0.1% Triton X-100, T8787-50ML) for 5 min with gentle shaking.
Blocking and Probing: Following the last Triton Wash, the plates were blocked for 1.5 h at RT with shaking using 150 μl of Odyssey Blocking Buffer (LI-COR #927-40000). The block was removed by aspiration and 50 μl of diluted primary Ab mix was added. The plates were incubated at 4° C. overnight with gentle shaking. The plates were washed five times with 200 μl of PBST (1×PBS, Sigma P3813-10PK, and 0.1% Tween-20, Sigma P9416-50ML) for 5 min each with shaking 50 μl of diluted secondary Ab mix was added and the plates incubated at RT for 1 h with shaking. The plates were washed 5× with 200 μl of PBST for 5 min each with shaking. […]

[1] = test system: epithelial carcinoma A431 cell line; test: MTT Cell Proliferation Assay, A431 cells; format: cell-based; conditions: for MTT Assay IC50(A431/MDBK): ratio in parentheses: ratio MDBK IC50 / A431 IC50 (selectivity)
From the text: (§1) The following example describes the MTT Cell Proliferation Assay.
(§2) The MTT Cell Proliferation Assay is a colorimetric assay system that measures the reduction of the tetrazolium salt MTT (3-(4,5-dimethylthiazol-2-yl)-2,5-diphenyltetrazolium bromide) into insoluble formazan crystals, produced by the mitochondria of viable cells. […] The color can then be quantified by spectrophotometric means. Among the applications for the method are drug sensitivity, cytotoxicity, response to growth factors, and cell activation. The reduction of tetrazolium salts is now recognized as a safe, accurate alternative to radiometric testing.
(§3) Two replicates on each cell plate and 2 duplicate plates gave 4 individual replicates of each concentration, in each cell line. Concentrations were diluted in 100% DMSO from 25 mM stocks.
(§4) Twelve 96 well plates of each cell line were plated. Plating was done by dislodging cells as in passage protocol, counting on a hemocytometer, re-suspending in standard growth media, and plating using a multichannel pippetor.
(§5) 16 μl of 25 mM stock+34 μl DMSO=8 mM starting concentrations, and serial diluted as with test compounds in same plate. […] Two replicates of each concentrations was run on each cell plate. All compound addition and cell treatments were done using aseptic technique under a laminar flow aseptic hood.
(§6) Control: 0.5% DMSO in treatment media was used as the control.
(§7) MTT dye (Thiazolyl Blue Tetrazolium Bromide, Sigma cat #M5655) stock was prepared in bulk and stored at 4° C. for use: 5 mgs/ml sterile PDS, shielded from light. 4 ul of this stock per 100 uls treatment media per well was used.
(§8) Plates were incubated overnight prior to treatment, with treatment day=Day 0. Compound treatments were prepared prior to washing cells to minimize time cells were dry at room temperature after final aspiration. Compounds were diluted in 100% DMSO in 96 well polypropylene plates: 40 μl 25 mM stock+10 μl DMSO=20 mM; 20 μl of 20 mM+30 μl DMSO=8 mM; 20 μl of 8 mM+30 μl DMSO=3.2 mM; 20 μl of 3.2 mM+30 μl DMSO=1.3 mM; 20 μl of 1.3 mM+30 μl DMSO=0.51 mM.
(§9) 5.0 μl/ml were added to treatment media, in sterile, 2.2 ml deep well plates=0.5% dmso final. Ten μl of each dmso concentration was added to 2.0 ml of treatment media and then mixed using a 1200 μl multichannel pipettor. Cell plates were treated from the deep well plates. Treatment media was standard growth media containing 0.5% FBS and standard additions. This reduced FBS concentration allowed for a slower growth rate in cells.
(§10) Media was aspirated from cell plates, and washed with 200 μl/well sterile PBS. Aspirated PBS wash, and cell plates were treated with 200 μl of compound/treatment media per well, and incubated at 37° C., 5% CO2 for 3 days.
(§11) Prior to harvesting, visual observations were made under an inverted microscope. Plates were harvested by: aspirating the growth media; adding back MTT dye/100 μl treatment media; and incubating plates at 37° C. for 1 hour. MTT dye was aspirated. 100 μl/well dmso was added, and then shaken on a Bellco plate shaker for 5 minutes, at 4.5 setting.
(§12) Plates were read in a Tecan Sunrize UV plate reader, at 560 nm. Settings: Read mode, Outside Normal 2 sec; Shake settle time 3 sec. Data is reported as % inhibition, calculated for individual plates using control values from that plate.

MDBK line = test: MTT Cell Proliferation Assay, MDBK cells; format: cell-based, bovine
From the text: as §1, §2, §3, §4, §5, §6, §7, §8, §9, §10, §11, §12

[2] = Homo sapiens, A-431, A431 cells, first value of cell, read-out: MTT Assay IC50(A431/MDBK): A431
[3] = Bos taurus, MDBK, MDBK cells, second value of cell, read-out: MTT Assay IC50(A431/MDBK): MDBK
[4] = % Inhibition of EGF dependent EGFR phosphorylation in A431 cells, compound 125 μM in assay
[5] = Homo sapiens, A-431, 72 h, Table 10, first of x/y(ratio): A431, three day treatment, unit not printed (doses in μM), read-out: MTT assay (first value)
[6] = Bos taurus, MDBK, 72 h, Table 10, second of x/y(ratio): MDBK, three day treatment, unit not printed (doses in μM), read-out: MTT assay (second value)

## COCc1cc(=O)nc(Nc2nc(C)c3cc(C)cc(C)c3n2)[nH]1 [11625 + TFA]
EGFR
  ICW Avg: 25.22
  ICW 1: 31.51
  ICW 2: 18.94
[1]; [2]
  IC50: 49 µM
[1]
  MTT Assay IC50(A431/MDBK): ratio in parentheses: 0.71
MDBK line; [3]
  IC50: 34.7 µM

## COc1ccc(N2CCN(Cc3cc(=O)oc4c(C)c(O)ccc34)CC2)cc1 [AD4-10217]
EGFR; Table 11, % Inhibition of EGF dependent EGFR phosphorylation in A431 cells, compound 125 μM in assay
  ICW Screen: −1.007
[1]; Homo sapiens, A-431, 72 h, Table 11, first of x/y(ratio): A431, unit not printed (doses in μM), read-out: MTT Screen (first value)
  IC50: 14 µM
MDBK line; Table 11, second of x/y(ratio): MDBK, unit not printed (doses in μM)
  MTT Screen (second value): non-convergent

## CCOc1ccc2nc(Nc3ncc4c(n3)CC(c3ccco3)CC4=O)nc(C)c2c1 (centres unmarked) [11674 + TFA]
EGFR
  ICW Avg: 25.04
  ICW 1: 31.91
  ICW 2: 18.16
[1]; [2]
  IC50: 20.2 µM
[1]
  MTT Assay IC50(A431/MDBK): ratio in parentheses: 1.76
MDBK line; [3]
  IC50: 35.5 µM

## Cc1cc(C)c(NS(=O)(=O)c2ccc(NC(=S)Nc3ccc(S(C)(=O)=O)cc3)cc2)c(C)c1 [AD4-11427]
EGFR; [4]
  ICW assay: 44.904
[1]; [5]
  IC50: 12 µM
MDBK line; [6]
  IC50: 14.5 µM

## Cc1ccc(NC(=S)Nc2ccc(S(=O)(=O)Nc3ccc(Cl)c(Cl)c3)cc2)cc1 [AD4-12438]
EGFR; [4]
  ICW assay: 53.245
[1]; [5]
  IC50: 5.69 µM
MDBK line; [6]
  IC50: 5.9 µM

## COc1ccc(NC(=S)Nc2ccc(S(=O)(=O)Nc3ccc(Cl)c(Cl)c3)cc2)cc1OC [AD4-11432]
EGFR; [4]
  ICW assay: 47.0006
[1]; Table 10, first of x/y(ratio): A431, three day treatment, unit not printed (doses in μM), read-out: MTT assay (first value)
  IC50: 7.8 µM
MDBK line; Table 10, second of x/y(ratio): MDBK, three day treatment, unit not printed (doses in μM), read-out: MTT assay (second value)
  IC50: 7.82 µM

## CCc1ccc2c(C)nc(Nc3nc(C)c(CCC(C)C)c(=O)[nH]3)nc2c1 [11771 + TFA]
EGFR
  ICW Avg: 46.95
  ICW 1: 51.58
  ICW 2: 42.32
[1]; [2]
  IC50: 18.2 µM
[1]
  MTT Assay IC50(A431/MDBK): ratio in parentheses: 2.32
MDBK line; [3]
  IC50: 42.1 µM

## O=C(COc1ccc(Cl)cc1Cl)NC(=S)Nc1ccc(S(=O)(=O)NC2CCCCC2)cc1 [AD4-12075]
EGFR
  ICW Screen (ICW Inhibition): 25.956
[1]; Homo sapiens, A-431, first value of 'a/b (c)', taken as A431 cells, read-out: MTT Screen, first value of cell
  IC50: 19.2 µM
MDBK line; Bos taurus, MDBK, second value of 'a/b (c)', taken as MDBK cells, read-out: MTT Screen, second value of cell
  IC50: 40.1 µM

## CCCc1c(C)nc(Nc2nc(C)c3cc(C)cc(C)c3n2)[nH]c1=O [12612 + TFA]
EGFR
  ICW Avg: 57.36
  ICW 1: 69.21
  ICW 2: 45.51
[1]; A431 cells, first value of cell, read-out: MTT Assay IC50(A431/MDBK): A431
  IC50: 48.5 µM
MDBK line; MDBK cells, second value of cell, read-out: MTT Assay IC50(A431/MDBK): MDBK
  IC50: 79.2 µM

## COc1ccc2nc(Nc3nc(C)c(CCC(C)C)c(=O)[nH]3)nc(C)c2c1 [compound 11456]
EGFR
  ICW Avg: 35.54
  ICW 1: 33.74
  ICW 2: 37.33
[1]; [2]
  IC50: 5.84 µM
[1]
  MTT Assay IC50(A431/MDBK): ratio in parentheses: 0.94
MDBK line; [3]
  IC50: 5.48 µM

## O=S(=O)(Nc1ccc(Cl)c(Cl)c1)c1ccc(NC(=S)Nc2cccc(F)c2)cc1 [AD4-12431]
EGFR; [4]
  ICW assay: 26.7815
[1]; [5]
  IC50: 6.4 µM
MDBK line; [6]
  IC50: 5.57 µM

## O=S(=O)(Nc1ccccc1)c1ccc(NC(=S)Nc2ccc(Cl)c(Cl)c2)cc1 [AD4-12833]
EGFR; [4]
  ICW assay: 115.634
[1]; [5]
  IC50: 5.94 µM
MDBK line; [6]
  IC50: 5.96 µM

## Cc1ccccc1NS(=O)(=O)c1ccc(NC(=S)Nc2cccc(C(F)(F)F)c2)cc1 [AD4-12487]
EGFR; [4]
  ICW assay: 84.5602
[1]; [5]
  IC50: 6.45 µM
MDBK line; [6]
  IC50: 5.5 µM

Reference: patent US20140179681A1, “METHODS AND COMPOSITIONS OF TARGETED DRUG DEVELOPMENT” (priority 2010, published 2014)
